Measured values from ChEMBL document CHEMBL3813664, “Synthesis and evaluation of biphenyl derivatives as potential downregulators of VEGF protein secretion and telomerase-related gene expressions” (Bioorg Med Chem, 2016).
Converted amounts (≈) assume the structure as drawn. The source made the active and inactive calls. The calls are words filed in the database; no cut-off is given here.

Columns and labels:
[1] = tested on: HT-29; test: Downregulation of c-Myc gene expression in human HT-29 cells assessed as gene expression levels at 5 ug/ml after 48 hrs by RT-qPCR analysis relative to control; assay type: functional
[2] = tested on: HT-29; test: Cytotoxicity against human HT-29 cells assessed as reduction in cell growth after 3 days by MTT assay; assay type: functional, cell-based; settings: HT-29, 72 h
[3] = tested on: HT-29; test: Downregulation of VEGFA-165 secretion in human HT-29 cells assessed as protein secretion levels at <1.1 ug/ml after 72 hrs by ELISA relative to control; assay type: functional, cell-based
[4] = tested on: HEK293; test: Cytotoxicity against HEK293 cells assessed as reduction in cell growth after 3 days by MTT assay; assay type: cell-based; settings: Homo sapiens, HEK293, 72 h
[5] = tested on: HT-29; test: Downregulation of VEGFA gene expression in human HT-29 cells assessed as gene expression levels at 5 ug/ml after 48 hrs by RT-qPCR analysis relative to control; assay type: functional
[6] = tested on: HT-29; test: Downregulation of VEGFA-165 secretion in human HT-29 cells assessed as protein secretion levels at 5 ug/ml after 72 hrs by ELISA relative to control; assay type: functional
[7] = Therapeutic index, ratio of IC50 for HEK293 cells to IC50 for human MCF7 cells; assay type: cell-based; settings: HEK293 cells versus MCF7 cells, read-out: Ratio IC50
[8] = tested on: HT-29; test: Downregulation of TERT gene expression in human HT-29 cells assessed as gene expression levels at 5 ug/ml after 48 hrs by RT-qPCR analysis relative to control; assay type: functional
[9] = Therapeutic index, ratio of IC50 for HEK293 cells to IC50 for human HT-29 cells; assay type: cell-based; settings: HEK293 cells versus HT-29 cells, read-out: Ratio IC50
[10] = tested on: MCF7; test: Cytotoxicity against human MCF7 cells assessed as reduction in cell growth after 3 days by MTT assay; assay type: functional, cell-based; settings: MCF7, 72 h
[11] = tested on: HT-29; test: Downregulation of VEGFA gene expression in human HT-29 cells assessed as gene expression levels at 20 ug/ml after 48 hrs by RT-qPCR analysis relative to control; assay type: functional
[12] = tested on: HT-29; test: Downregulation of TERT gene expression in human HT-29 cells assessed as gene expression levels at 20 ug/ml after 48 hrs by RT-qPCR analysis relative to control; assay type: functional
[13] = tested on: HT-29; test: Downregulation of c-Myc gene expression in human HT-29 cells assessed as gene expression levels at 20 ug/ml after 48 hrs by RT-qPCR analysis relative to control; assay type: functional
[14] = tested on: HT-29; test: Downregulation of VEGFA-165 secretion in human HT-29 cells assessed as protein secretion levels at 20 ug/ml after 72 hrs by ELISA relative to control; assay type: functional
[15] = tested on: HT-29; test: Downregulation of c-Myc gene expression in human HT-29 cells assessed as gene expression levels at 10 ug/ml after 48 hrs by RT-qPCR analysis relative to control; assay type: functional
[16] = tested on: HT-29; test: Downregulation of VEGFA gene expression in human HT-29 cells assessed as gene expression levels at 10 ug/ml after 48 hrs by RT-qPCR analysis relative to control; assay type: functional
[17] = tested on: HT-29; test: Downregulation of TERT gene expression in human HT-29 cells assessed as gene expression levels at 10 ug/ml after 48 hrs by RT-qPCR analysis relative to control; assay type: functional
[18] = tested on: HT-29; test: Downregulation of VEGFA-165 secretion in human HT-29 cells assessed as protein secretion levels at 10 ug/ml after 72 hrs by ELISA relative to control; assay type: functional
[19] = tested on: HT-29; test: Downregulation of TERT gene expression in human HT-29 cells assessed as gene expression levels at 30 ug/ml after 48 hrs by RT-qPCR analysis relative to control; assay type: functional
[20] = tested on: HT-29; test: Downregulation of c-Myc gene expression in human HT-29 cells assessed as gene expression levels at 30 ug/ml after 48 hrs by RT-qPCR analysis relative to control; assay type: functional
[21] = tested on: HT-29; test: Downregulation of VEGFA gene expression in human HT-29 cells assessed as gene expression levels at 30 ug/ml after 48 hrs by RT-qPCR analysis relative to control; assay type: functional
[22] = tested on: HT-29; test: Downregulation of VEGFA-165 secretion in human HT-29 cells assessed as protein secretion levels at 30 ug/ml after 72 hrs by ELISA relative to control; assay type: functional

| SMILES | Activity [1] | IC50 [2] | IC50 [4] | Activity [5] | Activity [6] | selectivity ratio [7] | Activity [8] | selectivity ratio [9] | IC50 [10] | Activity [11] | Activity [12] | Activity [13] | Activity [14] | further results |
| --- | --- | --- | --- | --- | --- | --- | --- | --- | --- | --- | --- | --- | --- | --- |
| COc1cccc(-c2ccccc2)c1 | 81% | 1.1 µg/mL (≈ 5.97 µM) | 5.5 µg/mL (≈ 29.9 µM) | 73% | 57% | 0.1 | 77% | 5.1 | 47 µg/mL (≈ 255 µM) | – | – | – | – | Activity [3]: inactive |
| COc1ccc(-c2ccc(O)cc2)cc1OC | – | 26 µg/mL (≈ 113 µM) | > 100 µg/mL | – | – | > 3 | – | > 4 | 34 µg/mL (≈ 148 µM) | 41% | 22% | 87% | 55% | – |
| COc1cccc(-c2cccc(O)c2)c1 | – | 16 µg/mL (≈ 79.9 µM) | 34 µg/mL (≈ 170 µM) | – | – | 1 | – | 2 | 33 µg/mL (≈ 165 µM) | – | – | – | – | Activity [15]: 71%; Activity [16]: 21%; Activity [17]: 88%; Activity [18]: 31% |
| COc1ccc(-c2ccccc2O)c(OC)c1 | – | 33.7 µg/mL (≈ 146 µM) | > 100 µg/mL | – | – | – | – | > 3 | > 100 µg/mL | – | – | – | – | Activity [19]: 29%; Activity [20]: 54%; Activity [21]: 56%; Activity [22]: 29% |
| C=CCc1ccc(O)c(-c2ccc(O)c(CC=C)c2)c1 [HONOKIOL] | 45% | – | 9.3 µg/mL (≈ 34.9 µM) | 36% | 55% | 1.9 | 45% | 1.5 | 5 µg/mL (≈ 18.8 µM) | – | – | – | – | – |
| Oc1ccc(-c2ccccc2)cc1 | – | 25 µg/mL (≈ 147 µM) | 45 µg/mL (≈ 264 µM) | – | – | 1 | – | 2 | 47 µg/mL (≈ 276 µM) | 65% | 81% | 55% | 48% | – |
